Measured values taken from patent US5932742A, “Arylsulfonylimidazolone derivatives as an antitumor agent” (priority 1996, dated 1999).
Values after ≈ are worked out from the molar mass of the structure shown. Structures can show the parent of a compound that is named as a salt. Where two headings read alike, the source gives them in different places.

Experiments:
Format in all cases: cell-based
[1] = tested on: K562 (ATCC CCL 243): human chronic myelogenous leukemia; experiment: In vitro antitumor activity, MTT assay, K562; conditions: Homo sapiens, K562, 48 h
Procedure: (§1) In vitro antitumor activity against human tumor cell lines
(§2) In vitro antitumor activity of the compounds according to the present invention was determined by MTT assay method against the following human tumor cell lines:
K562 (ATCC CCL 243): human chronic myelogenous leukemia
(§3) In this test, the known antineoplastic compounds, Doxorubicin and Sulofenur, were used as the comparative agents.
(§4) Each of the tumor cells was cultured in RPMI 1640 media containing 10% fetal bovine serum, 100 IU/ml penicillin and 100 μg/ml streptomycin, and then periodically subcultured once or twice per week in trypsin-EDTA solution containing 0.05% trypsin and 0.53mM EDTA.4Na. The human tumor cell line thus obtained (10,000cells/100 μl) was plated on 96-well microplate and then cultured for 24 hrs at 37° C. in a 5% CO2 incubator. Test compound was dissolved in DMSO, sterilized with 0.22 μm PVDF filter, and then serially 5-fold diluted from 40 μg/ml to 0.00256μg/ml. 100 μl of the sample solution thus prepared and RPMI 1640 medium only (control group) were added to 96-well microplate containing the human tumor cell, respectively. The final concentration of the test compound was in the range from 20 μg/ml to 0.00128 μg/ml and the concentration of DMSO was below 0.5%. The cells were cultured for 48 hrs at 37° C. in a 5% CO2 incubator. MTT(3-(4,5-Dimethylthiazole-2-yl)-e,5-diphenyltetrazoliumbromide) was dissolved in physiological saline in a concentration of 2 mg/ml and the resulting solution was filtered through 0.22 μm PTFE filter. 25 μl of MTT solution thus prepared was added to each well of 96-well microplate and incubated for additional 4 hrs at 37° C. in a 5% CO2 incubator. Then, the content of microplate was centrifuged at 1000 rpm for 10 min, and supernatant was removed by flicking. The formazan formed from MTT by mitochondrial succinate dehydrogenase was dissolved in 100 μl of DMSO. The absorbance of each well was measured at 540nm by micro ELISA reader and the cytotoxicity was calculated by dividing the absorbance of test group by the absorbance of control group. After the calculated cytotoxicity (%) was plotted, the concentration of 50% tumor growth inhibition concentration (IC50) was estimated by Linear-Regression method.

[2] = tested on: Colo205 (ATCC CCL 222): human colon adenocarcinoma; experiment: In vitro antitumor activity, MTT assay, Colo205; conditions: Homo sapiens
Procedure: as §1, §2
Colo205 (ATCC CCL 222): human colon adenocarcinoma
as §3, §4

[3] = tested on: SK-OV-3 (ATCC HTB 77): human ovarian adenocarcinoma; experiment: In vitro antitumor activity, MTT assay, SK-OV-3; conditions: Homo sapiens
Procedure: as §1, §2
SK-OV-3 (ATCC HTB 77): human ovarian adenocarcinoma
as §3, §4

[4] = tested on: A549 (ATCC CCL 185): human lung carcinoma; experiment: In vitro antitumor activity, MTT assay, A549; conditions: Homo sapiens, A549, 48 h
Procedure: as §1, §2
A549 (ATCC CCL 185): human lung carcinoma
as §3, §4

[5] = tested on: KB (ATCC CCL 17): human epidermoid carcinoma; experiment: In vitro antitumor activity, MTT assay, KB; conditions: Homo sapiens; Table 1; MTT, 48 hrs; read-out: IC50 (KB)
Procedure: as §1, §2
KB (ATCC CCL 17): human epidermoid carcinoma
as §3, §4

[6] = COLO 205, Table 3, 48 hrs, read-out: IC50 (Col205)

SMILES	IC50 ([1]; Table 3, read-out: IC50 (K562))	IC50 [2, 6]	IC50 ([3]; SK-OV-3, Table 3, 48 hrs)	IC50 ([4]; Table 3)	IC50 ([1]; Table 5, read-out: IC50 (K562))	IC50 ([2]; COLO 205, Table 5, 48 hrs, read-out: IC50 (Colo205))	IC50 ([3]; SK-OV-3, Table 5, 48 hrs)	IC50 ([4]; Table 5)	IC50 ([3]; SK-OV-3, Table 1, 48 hrs)	IC50 [5]	IC50 ([4]; Table 1)
CCNC(=S)N1CCc2cc(S(=O)(=O)N3CC(c4ccccc4)NC3=O)ccc21 (centres unmarked) [Example 39, 4-phenyl-1-(N-ethylthiocarbamoylindoline-5-sulfonyl)-4,5-dihydro-2-imidazolone]	0.567 µg/mL (≈ 1.32 µM)	9.11 µg/mL (≈ 21.2 µM)	3.17 µg/mL (≈ 7.36 µM)	0.438 µg/mL (≈ 1.02 µM)							
O=C(NC1CCCCC1)N1CCc2cc(S(=O)(=O)N3CC(c4ccccc4)NC3=O)ccc21 (centres unmarked) [Example 33, 4-phenyl-1-(N-cyclohexylcarbamoylindoline-5-sulfonyl)-4,5-dihydro-2-imidazolone]	0.0037 µg/mL (≈ 0.0079 µM)	0.172 µg/mL (≈ 0.367 µM)	0.043 µg/mL (≈ 0.0918 µM)	0.003 µg/mL (≈ 0.0064 µM)							
NCC(=O)Nc1ccc(C(=O)N2CCc3cc(S(=O)(=O)N4C[C@H](c5ccccc5)NC4=O)ccc32)cc1 [Example 67, (S)-(+)-4-phenyl-1-[N-{4-(2-aminoacetyl)aminobenzoyl}indoline-5-sulfonyl]-4,5-dihydro-2-imidazolone.HCl]					1.32 µg/mL	0.971 µg/mL	0.855 µg/mL	0.254 µg/mL			
CCNC(=O)N1CCc2cc(S(=O)(=O)n3cc(-c4ccccc4)[nH]c3=O)ccc21 [Example 2, 4-phenyl-1-(N-ethylcarbamoylindoline-5-sulfonyl)-2-imidazolone]									0.537 µg/mL (≈ 1.3 µM)	16.7 µg/mL (≈ 40.4 µM)	0.325 µg/mL (≈ 0.788 µM)
COc1ccc(NC(=O)N2CCc3cc(S(=O)(=O)N4CC(c5ccccc5)NC4=O)ccc32)cc1 (centres unmarked) [Example 36, 4-phenyl-1-[N-(4-methoxyphenyl)carbamoylindoline-5-sulfonyl]-4,5-dihydro-2-imidazolone]	6.92 µg/mL (≈ 14 µM)	0.391 µg/mL (≈ 0.794 µM)	0.047 µg/mL (≈ 0.0954 µM)	0.18 µg/mL (≈ 0.365 µM)							
O=C1NC(c2ccccc2)CN1S(=O)(=O)c1ccc2c(c1)CCN2C(=S)Nc1ccc(F)cc1 (centres unmarked) [Example 46, 4-phenyl-1-[N-(4-fluorophenyl)thiocarbamoylindoline-5-sulfonyl]-4,5-dihydro-2-imidazolone]	3.94 µg/mL (≈ 7.94 µM)	8.74 µg/mL (≈ 17.6 µM)	3.13 µg/mL (≈ 6.3 µM)	3.29 µg/mL (≈ 6.63 µM)							
O=C1NC(c2ccccc2)CN1S(=O)(=O)c1ccc2c(c1)CCN2C(=S)Nc1ccccc1 (centres unmarked) [Example 42, 4-phenyl-1-(N-phenylthiocarbamoylindoline-5-sulfonyl)-4,5-dihydro-2-imidazolone]	0.017 µg/mL (≈ 0.0355 µM)	2.14 µg/mL (≈ 4.46 µM)	10.5 µg/mL (≈ 21.9 µM)	0.095 µg/mL (≈ 0.198 µM)							
CCCCNC(=S)N1CCc2cc(S(=O)(=O)N3CC(c4ccccc4)NC3=O)ccc21 (centres unmarked) [Example 41, 4-phenyl-1-(N-butylthiocarbamoylindoline-5-sulfonyl)-4 5-dihydro-2-imidazolone]	2.05 µg/mL (≈ 4.48 µM)	2.4 µg/mL (≈ 5.23 µM)	0.897 µg/mL (≈ 1.96 µM)	0.584 µg/mL (≈ 1.27 µM)							
CCCNC(=O)N1CCc2cc(S(=O)(=O)N3CC(c4ccccc4)NC3=O)ccc21 (centres unmarked) [Example 30, 4-phenyl-1-(N-propylcarbamoylindoline-5-sulfonyl)-4,5-dihydro-2-imidazolone]	0.488 µg/mL (≈ 1.14 µM)	0.254 µg/mL (≈ 0.593 µM)	0.261 µg/mL (≈ 0.609 µM)	0.103 µg/mL (≈ 0.24 µM)							
COc1ccccc1NC(=O)N1CCc2cc(S(=O)(=O)N3CC(c4ccccc4)NC3=O)ccc21 (centres unmarked) [Example 44, 4-phenyl-1-[N-(2-methoxyphenyl)carbamoylindoline-5-sulfonyl]-4,5-dihydro-2-imidazolone]	0.29 µg/mL (≈ 0.589 µM)	1.47 µg/mL (≈ 2.97 µM)	0.273 µg/mL (≈ 0.554 µM)	0.135 µg/mL (≈ 0.274 µM)							
Cc1ccc(NC(=O)N2CCc3cc(S(=O)(=O)N4CC(c5ccccc5)NC4=O)ccc32)cc1 (centres unmarked) [Example 45, 4-phenyl-1-[N-(4-methylphenyl)carbamoylindoline-5-sulfonyl]-4,5-dihydro-2-imidazolone]	1.03 µg/mL (≈ 2.17 µM)	3.27 µg/mL (≈ 6.85 µM)	0.813 µg/mL (≈ 1.71 µM)	0.311 µg/mL (≈ 0.653 µM)							
Nc1ccc(NC(=O)N2CCc3cc(S(=O)(=O)N4CC(c5ccccc5)NC4=O)ccc32)cc1 (centres unmarked) [Example 35, 4-phenyl-1-[N-(4-aminophenyl)carbamoylindoline-5-sulfonyl)-4,5-dihydro-2-imidazolone]	0.004 µg/mL (≈ 0.00838 µM)	3.24 µg/mL (≈ 6.78 µM)	0.763 µg/mL (≈ 1.6 µM)	0.286 µg/mL (≈ 0.599 µM)							
